# Measurements from paper PMC12084609, “Structural insights into small-molecule agonist recognition and activation of complement receptor C3aR” (The EMBO Journal, 2025).
# Residue numbers refer to the chain shown, from its start. Values joined by “and” are separate entries in the source; they are usually repeats but may differ in a detail not shown here. Identical values can stand only once.
# Experiments:
# [1] = target: T1, C3aR I102^3.32A/I421^7.39A (Homo sapiens, UniProt Q16581, I102A/I421A); assay: GloSensor-based cAMP assay, C3aR double mutant I102A/I421A; assay type: cell-based
# T1 construct: expressed in transfected cells; host or cells: HEK293T
# T1 sequence (Q16581 1-482 I102A/I421A): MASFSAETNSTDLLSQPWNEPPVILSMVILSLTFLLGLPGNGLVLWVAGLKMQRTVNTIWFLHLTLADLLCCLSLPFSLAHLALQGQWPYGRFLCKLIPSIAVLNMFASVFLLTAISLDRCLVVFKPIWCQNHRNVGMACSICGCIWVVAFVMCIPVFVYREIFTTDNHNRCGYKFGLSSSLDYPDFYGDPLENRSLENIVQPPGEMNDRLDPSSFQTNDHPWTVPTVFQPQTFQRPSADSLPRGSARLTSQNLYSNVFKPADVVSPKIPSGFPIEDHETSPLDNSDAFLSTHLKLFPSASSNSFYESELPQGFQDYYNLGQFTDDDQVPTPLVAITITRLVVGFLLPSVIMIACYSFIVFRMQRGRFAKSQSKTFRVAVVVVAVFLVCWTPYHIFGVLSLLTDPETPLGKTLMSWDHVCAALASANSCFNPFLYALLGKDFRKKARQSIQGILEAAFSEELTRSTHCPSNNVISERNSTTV
# Protocol: (§1) HEK293T cells were seeded on 6-well plates (NEST) and transfected with pGlosensor™-22F plasmids (Promega) and pcDNA3.1 plasmids encoding C3aR or its mutants an with N-terminal FLAG tag. After 48 h, cells were detached with Accutase solution (Sigma-Aldrich) and washed with PBS, and resuspended in assay buffer (CO2-independent medium with 0.5 mg mL^−1D-luciferin). 100,000–200,000 cells were seeded on 96-well white bottom plates (SPL) and incubated at 37 °C for 45 min followed by 45 min incubation at room temperature. After 90 min of incubation, basal luminescence signals were recorded. In total, 25 μl of test ligand with various concentrations and 1 μM Forskolin (Sigma-Aldrich) were treated to the cells and luminescence signals were measured by Tristar 2 LB 942 multimode reader (Berthold). […] Relative luminescence unit (%) was calculated with the signal of wells treated with vehicle as 0% and the signal of wells treated with 1 μM Forskolin as 100% (DiRaddo et al, [2014]). Nonlinear regression was performed using a three-parameter logistic equation.
# C3aR Y174^ECL2A = target: T2, C3aR Y174^ECL2A (Homo sapiens, UniProt Q16581, Y174A); assay: GloSensor-based cAMP assay, C3aR mutant Y174A; assay type: cell-based
# T2 construct: expressed in transfected cells; host or cells: HEK293T
# T2 sequence (Q16581 1-482 Y174A): T1 sequence (Q16581 1-482 I102A/I421A) with A102I, Y174A, A421I
# Protocol: as §1
# C3aR [2] = tested on: C3aR; set-up: method as in Mathieu et al, 2005; Rodriguez et al, 2024; conditions: blockade of calcium influx attributed to β-arrestin mediated internalization; ref Mathieu et al, 2005; Rodriguez et al, 2024; cited from earlier work
# C3aR [3] = tested on: C3aR; set-up: method as in Luo et al, 2025; conditions: HEK293 cells; ref Luo et al, 2025; cited from earlier work
# C3aR [4] = target: T3, C3aR (Homo sapiens, UniProt Q16581); set-up: method as in Rowley et al, 2020; conditions: inhibition of C3a-induced calcium release and mast cell degranulation; ref Rowley et al, 2020; cited from earlier work
# C3aR S26^1.35A = target: T4, C3aR S26^1.35A (Homo sapiens, UniProt Q16581, S26A); assay: GloSensor-based cAMP assay, C3aR mutant S26A; assay type: cell-based
# T4 construct: expressed in transfected cells; host or cells: HEK293T
# T4 sequence (Q16581 1-482 S26A): T1 sequence (Q16581 1-482 I102A/I421A) with S26A, A102I, A421I
# Protocol: as §1
# C3aR [5] = target: T3, C3aR; set-up: method as in Luo et al, 2025; conditions: human monocyte THP-1 cells, naturally express C3aR; ref Luo et al, 2025; cited from earlier work
# [6] = Dunnett's multiple comparisons test, WT minus mutant
# T3 sequence (Q16581 whole entry): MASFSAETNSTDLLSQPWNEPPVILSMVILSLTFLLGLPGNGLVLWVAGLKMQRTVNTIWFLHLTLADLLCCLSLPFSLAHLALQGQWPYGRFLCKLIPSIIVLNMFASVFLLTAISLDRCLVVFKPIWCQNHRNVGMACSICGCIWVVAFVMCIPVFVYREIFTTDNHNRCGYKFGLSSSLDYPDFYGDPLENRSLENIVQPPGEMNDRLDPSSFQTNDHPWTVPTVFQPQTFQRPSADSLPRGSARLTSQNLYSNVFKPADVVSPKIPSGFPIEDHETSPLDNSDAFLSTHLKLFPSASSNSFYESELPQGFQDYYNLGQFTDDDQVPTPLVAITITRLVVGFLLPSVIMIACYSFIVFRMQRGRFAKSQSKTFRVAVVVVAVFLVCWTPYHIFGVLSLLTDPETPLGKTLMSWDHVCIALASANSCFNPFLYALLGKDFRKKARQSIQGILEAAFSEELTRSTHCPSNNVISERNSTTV
# T3 sequence (P63096 2-354 partner limits assumed): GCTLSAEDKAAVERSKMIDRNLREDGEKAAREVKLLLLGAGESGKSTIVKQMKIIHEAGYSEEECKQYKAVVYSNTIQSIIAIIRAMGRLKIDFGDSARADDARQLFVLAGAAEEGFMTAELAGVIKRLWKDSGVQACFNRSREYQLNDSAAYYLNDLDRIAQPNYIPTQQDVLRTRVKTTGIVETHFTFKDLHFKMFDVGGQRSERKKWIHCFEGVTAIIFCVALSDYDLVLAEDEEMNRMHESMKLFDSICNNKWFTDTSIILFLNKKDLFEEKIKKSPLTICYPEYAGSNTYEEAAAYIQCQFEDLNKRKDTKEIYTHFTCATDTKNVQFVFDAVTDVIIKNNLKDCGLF
# T3 sequence (P62873 2-340 partner limits assumed): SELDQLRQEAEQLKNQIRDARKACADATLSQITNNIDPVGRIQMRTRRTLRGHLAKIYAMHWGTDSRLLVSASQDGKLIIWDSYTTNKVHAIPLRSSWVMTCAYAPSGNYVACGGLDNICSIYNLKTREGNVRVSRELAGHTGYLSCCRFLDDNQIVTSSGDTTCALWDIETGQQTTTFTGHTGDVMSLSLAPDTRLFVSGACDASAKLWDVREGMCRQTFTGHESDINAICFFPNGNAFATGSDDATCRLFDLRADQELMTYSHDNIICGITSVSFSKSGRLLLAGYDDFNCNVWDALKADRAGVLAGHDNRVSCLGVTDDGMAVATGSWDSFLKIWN
# T3 sequence (P59768 2-68 partner limits assumed): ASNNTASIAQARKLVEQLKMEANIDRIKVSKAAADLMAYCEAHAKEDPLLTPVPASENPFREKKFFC
smiles,measurement,setting,value
"Cc1cc(C(c2ccc(Cl)cc2)c2ccc(Cl)cc2)sc1C(=O)N[C@@H](CCCNC(=N)N)C(=O)O [JR14a, reference compound]",ΔpIC50 ± SE of Diff.,[1]; I102^3.32A/I421^7.39A relative to WT C3aR,-2.34 ± 0.08
same,IC50,"[1]; IC50, I102^3.32A/I421^7.39A, dose-response plot",1590 nM
same,IC50,"[1]; pIC50 (Replicate), I102^3.32A/I421^7.39A, individual replicates",2450 nM and 1150 nM and 1740 nM
same,IC50,"[1]; pIC50 ± SEM (Mean), I102^3.32A/I421^7.39A, mean of independent experiments",1700 nM
same,"Mean Diff. of pIC50, WT vs. Y174A",C3aR Y174^ECL2A; [6],-0.215
same,IC50,"C3aR Y174^ECL2A; IC50, Y174^ECL2A, dose-response plot",1.61 nM
same,remaining activity at 1 µM,"C3aR Y174^ECL2A; Y174A, Log[JR14a (M)] -6, single replicates, read-out: cAMP response (% Forskolin)",10.9%
same,remaining activity at 0.1 µM,"C3aR Y174^ECL2A; Y174A, Log[JR14a (M)] -7, single replicates, read-out: cAMP response (% Forskolin)",11.8%
same,remaining activity at 0.01 µM,"C3aR Y174^ECL2A; Y174A, Log[JR14a (M)] -8, single replicates, read-out: cAMP response (% Forskolin)",40.7%
same,remaining activity at 0.0001 µM,"C3aR Y174^ECL2A; Y174A, Log[JR14a (M)] -10, single replicates, read-out: cAMP response (% Forskolin)",95.8%
same,remaining activity at 10 pM,"C3aR Y174^ECL2A; Y174A, Log[JR14a (M)] -11, single replicates, read-out: cAMP response (% Forskolin)",106%
same,ΔpIC50 ± SE of Diff.,C3aR Y174^ECL2A; Y174^ECL2A relative to WT C3aR,0.22 ± 0.09
same,decrease in IC50 values vs WT,"C3aR Y174^ECL2A; Y174^ECL2 to Ala, relatively mild effect on downstream signaling",< 10 fold
same,IC50,"C3aR Y174^ECL2A; pIC50 (Replicate), Y174^ECL2A, individual replicates",3.63 nM and 1.55 nM and 0.871 nM
same,IC50,"C3aR Y174^ECL2A; pIC50 ± SEM (Mean), Y174^ECL2A, mean of independent experiments",1.7 nM
same,activity at C3aR,C3aR [2],potent agonist
same,forskolin-induced cAMP production,C3aR [3],inhibited forskolin-induced cAMP production in a dose-dependent manner
same,IC50 values,C3aR [4],nanomolar range
same,"Mean Diff. of pIC50, WT vs. S26A",C3aR S26^1.35A; [6],-0.137
same,IC50,"C3aR S26^1.35A; IC50, S26^1.35A, dose-response plot",5.58 nM
same,remaining activity at 1 µM,"C3aR S26^1.35A; S26A, Log[JR14a (M)] -6, single replicates, read-out: cAMP response (% Forskolin)",7.75%
same,remaining activity at 0.1 µM,"C3aR S26^1.35A; S26A, Log[JR14a (M)] -7, single replicates, read-out: cAMP response (% Forskolin)",8.58%
same,remaining activity at 0.0001 µM,"C3aR S26^1.35A; S26A, Log[JR14a (M)] -10, single replicates, read-out: cAMP response (% Forskolin)",91.9%
same,remaining activity at 10 pM,"C3aR S26^1.35A; S26A, Log[JR14a (M)] -11, single replicates, read-out: cAMP response (% Forskolin)",96.7%
same,ΔpIC50 ± SE of Diff.,C3aR S26^1.35A; S26^1.35A relative to WT C3aR,0.14 ± 0.07
same,IC50,"C3aR S26^1.35A; pIC50 (Replicate), S26^1.35A, individual replicates",1.62 nM and 4.57 nM and 7.41 nM
same,IC50,"C3aR S26^1.35A; pIC50 ± SEM (Mean), S26^1.35A, mean of independent experiments",3.8 nM
same,forskolin-induced cAMP production,C3aR [5],inhibited forskolin-induced cAMP production in a dose-dependent manner
